Measurements as given in ChEMBL document CHEMBL1201862, “PubChem BioAssay data set” (2004).
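These data come from cells grown in 96-well plates and exposed to compound for 48 hours at five concentrations. GI50 is the concentration that inhibits growth by half.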 Calls of active or inactive are those of the source. No stated cut-off is given here; in the data, active = GI50 up to about 1.1 µM and inactive = higher.

Legend:
Assay in all cases: inhibition of tumour cell growth, NCI panel, 48 h
ACHN = tested on: ACHN
HCC 2998 = tested on: HCC 2998
HOP-62 = tested on: HOP-62
HT-29 = tested on: HT-29
Hs-578T = tested on: Hs-578T
LOX IMVI = tested on: LOX IMVI
Malme-3M = tested on: Malme-3M
NCI-H23 = tested on: NCI-H23
NCI-H460 = tested on: NCI-H460
OVCAR-3 = tested on: OVCAR-3
PC-3 = tested on: PC-3
SF-295 = tested on: SF-295
SF-539 = tested on: SF-539
SK-MEL-28 = tested on: SK-MEL-28
SK-MEL-2 = tested on: SK-MEL-2
SNB-75 = tested on: SNB-75
SW-620 = tested on: SW-620
UO-31 = tested on: UO-31
HL-60 = tested on: HL-60
MCF7 = tested on: MCF7

Measured: GI50

C(=N\c1ccc(-c2nc3ccccc3s2)cc1)/c1ccco1
inactive: ACHN 44.8 µM | HCC 2998 43.5 µM | HOP-62 30.4 µM | HT-29 70 µM | Hs-578T > 100 µM | LOX IMVI 54.1 µM | Malme-3M > 100 µM | NCI-H23 70.6 µM | NCI-H460 40.3 µM | OVCAR-3 43.6 µM | PC-3 32.5 µM | SF-295 18.9 µM | SF-539 > 100 µM | SK-MEL-28 > 100 µM | SK-MEL-2 60.3 µM | SNB-75 85.5 µM | SW-620 > 100 µM | UO-31 62.4 µM

Cn1c(N/N=C/c2ccccc2)nc(-c2ccc3c(c2)OCO3)c(C#N)c1=O
inactive: ACHN 59.3 µM | HL-60 39.9 µM | HOP-62 > 100 µM | HT-29 > 100 µM | Hs-578T 48.5 µM | LOX IMVI 55.6 µM | MCF7 > 100 µM | Malme-3M > 100 µM | NCI-H23 > 100 µM | NCI-H460 87.7 µM | OVCAR-3 27.5 µM | PC-3 56.8 µM | SF-295 84.9 µM | SF-539 > 100 µM | SK-MEL-28 > 100 µM | SK-MEL-2 > 100 µM | SNB-75 > 100 µM | SW-620 > 100 µM | UO-31 77.3 µM

CNC(=O)C1(N)c2ccccc2C=Cc2ccccc21
inactive: ACHN > 100 µM | HL-60 > 100 µM | HOP-62 > 100 µM | HT-29 > 100 µM | Hs-578T > 100 µM | LOX IMVI > 100 µM | MCF7 > 100 µM | Malme-3M > 100 µM | NCI-H23 > 100 µM | OVCAR-3 > 100 µM | PC-3 > 100 µM | SF-295 > 100 µM | SF-539 > 100 µM | SK-MEL-28 > 100 µM | SK-MEL-2 > 100 µM | SW-620 > 100 µM | UO-31 > 100 µM

Cc1ccc2c(c1)-c1nc(N)c(C#N)c(-c3ccc(Cl)cc3)c1CCS2(=O)=O
inactive: ACHN 44.6 µM | HCC 2998 64.3 µM | HL-60 17.7 µM | HT-29 21.4 µM | Hs-578T 43 µM | LOX IMVI 35.8 µM | Malme-3M 44.6 µM | NCI-H23 39.4 µM | NCI-H460 35.2 µM | PC-3 26.8 µM | SK-MEL-28 48.9 µM | SK-MEL-2 22.5 µM | SNB-75 49 µM | SW-620 46 µM | UO-31 20 µM

C#C[C@]1(O)CC[C@H]2[C@@H]3CCC4=C/C(=N/CCOC(=O)c5cccc6cc7ccccc7nc56)CC[C@@H]4[C@H]3CC[C@@]21C
inactive: ACHN 29.2 µM | HL-60 > 100 µM | HOP-62 35.2 µM | HT-29 28.4 µM | Hs-578T 14.3 µM | LOX IMVI 12.3 µM | MCF7 17.3 µM | Malme-3M 27.7 µM | NCI-H23 19.9 µM | NCI-H460 14.9 µM | OVCAR-3 35.5 µM | PC-3 11.7 µM | SF-295 22.3 µM | SK-MEL-28 75.2 µM | SK-MEL-2 21.7 µM | SW-620 57.3 µM | UO-31 30.5 µM

COC(=O)C1(C(=O)OC)Cc2ccc(C)cc2C2=C1C(=O)c1ccccc1C2=O
inactive: ACHN 16.5 µM | HL-60 31.6 µM | HOP-62 14.4 µM | HT-29 21.7 µM | Hs-578T 24.6 µM | LOX IMVI 14.9 µM | MCF7 15 µM | Malme-3M 32 µM | NCI-H23 18.2 µM | NCI-H460 40.6 µM | OVCAR-3 3.24 µM | PC-3 15.2 µM | SF-295 21.2 µM | SF-539 23.9 µM | SK-MEL-28 16.6 µM | SK-MEL-2 11.7 µM | SNB-75 12.8 µM | SW-620 19.8 µM

CCOC(=O)c1c(NC(=O)c2ccccc2)sc2c1CCC2
inactive: ACHN > 100 µM | HL-60 > 100 µM | HOP-62 > 100 µM | HT-29 > 100 µM | Hs-578T > 100 µM | MCF7 > 100 µM | NCI-H23 > 100 µM | NCI-H460 > 100 µM | OVCAR-3 > 100 µM | PC-3 > 100 µM | SF-295 > 100 µM | SF-539 > 100 µM | SK-MEL-2 > 100 µM | SNB-75 > 100 µM | UO-31 > 100 µM

O=C1CS(=O)(=O)C(c2cccc(Oc3ccccc3)c2)N1c1cccc(Cl)c1Cl (stereo not given)
inactive: ACHN 20.3 µM | HL-60 31 µM | HOP-62 40.6 µM | HT-29 25.2 µM | Hs-578T 29.8 µM | LOX IMVI 17.7 µM | MCF7 6.11 µM | Malme-3M 24.3 µM | NCI-H460 36.2 µM | OVCAR-3 21.5 µM | PC-3 26.4 µM | SF-295 33.8 µM | SF-539 20.8 µM | SK-MEL-28 51.4 µM | SK-MEL-2 19.5 µM | SNB-75 29.3 µM | SW-620 28.8 µM | UO-31 29.5 µM

Cc1c2ccnc(C(N)=O)c2c(C)c2c1[nH]c1ccccc12
inactive: ACHN 2.51 µM | HCC 2998 14.1 µM | HL-60 13.4 µM | HOP-62 5.97 µM | HT-29 6.35 µM | LOX IMVI 4.65 µM | MCF7 2.39 µM | Malme-3M 6.15 µM | NCI-H23 4.84 µM | NCI-H460 3.81 µM | OVCAR-3 9.08 µM | SF-295 1.53 µM | SF-539 6.76 µM | SK-MEL-28 7.78 µM | SK-MEL-2 13.1 µM | SNB-75 10.6 µM | SW-620 3.19 µM | UO-31 6.43 µM

NC(=O)c1ccc(C(=O)Nc2ccc([As](=O)(O)O)cc2)cc1
inactive: ACHN > 100 µM | HL-60 > 100 µM | HOP-62 > 100 µM | HT-29 > 100 µM | Hs-578T > 100 µM | LOX IMVI > 100 µM | MCF7 > 100 µM | Malme-3M > 100 µM | NCI-H23 > 100 µM | NCI-H460 > 100 µM | OVCAR-3 > 100 µM | PC-3 > 100 µM | SF-295 > 100 µM | SK-MEL-28 > 100 µM | SK-MEL-2 > 100 µM | SNB-75 > 100 µM | SW-620 > 100 µM | UO-31 > 100 µM

O=C(/C=C/c1ccc(O)c(O)c1)c1cc(O)cc(O)c1
inactive: ACHN 14.7 µM | HL-60 2.25 µM | HOP-62 21.4 µM | HT-29 19.4 µM | Hs-578T 11 µM | LOX IMVI 5.42 µM | MCF7 3.55 µM | Malme-3M 14.4 µM | NCI-H23 12.3 µM | OVCAR-3 13.2 µM | PC-3 13.5 µM | SF-295 19.7 µM | SF-539 6.52 µM | SK-MEL-28 16.4 µM | SK-MEL-2 13 µM | SNB-75 12.2 µM | UO-31 10.6 µM
